Data on 3 compounds can be found in publication PMC4604124, “In Vitro Characterization of the Pharmacological Properties of the Anti-Cancer Chelator, Bp4eT, and Its Phase I Metabolites” (PLoS ONE, 2015).

Where “and” joins values, the source holds several entries; their conditions need not be identical. Equal entries are not always repeated. Where two headings read alike, the source gives them in different places. Some results are limits rather than exact numbers.

The subject of series [1] is MCF-7 human breast adenocarcinoma cells. As to the kind of experiment: MTT cytotoxicity assay, MCF-7 cells. The format is cell-based. Particulars: for IC50: MTT, read-out: IC50. How it is done: (§1) For cytotoxicity experiments, cancer cells were seeded at a density of 5,000 (MCF-7), 10,000 (HL-60) or 2,000 cells/well (HCT116 and A549) in 96-well plates (TPP) for 24 h/37°C prior to the addition of examined agents. The non-cancerous cells, 3T3 and H9c2 cells, were cultured for 24 h/37°C in 96-well plates at a density of 10,000 cells/well, the medium was then changed to serum- and pyruvate-free DMEM (Sigma-Aldrich) and incubated with the cells for another 24 h/37°C. The cytotoxic effects of Bp4eT and its metabolites were studied at different concentrations after a 72 h/37°C incubation. In order to aid the dissolution of the lipophilic ligands, 0.1% dimethyl sulfoxide (v/v) (DMSO; Sigma-Aldrich) was present in the culture medium of all groups. At this concentration, DMSO had no effect on cellular proliferation or viability.
(§2) The viability of cells were determined using an MTT assay (Sigma-Aldrich) according to previously established methods. The optical density of soluble MTT was measured at λ = 570 nm, subtracting the λ = 690 nm background using a Tecan Infinite 200M plate reader (Tecan Group, Männedorf, Switzerland). The viability or proliferation of experimental groups was expressed as a percentage of the untreated controls (100%).
(§3) SigmaStat for Windows 3.5 (Systat Software, San Jose, CA, USA) statistical software package was utilized to analyze results. The data are expressed as the mean ± SD of a given number of experiments. Statistical significance was determined using a one-way ANOVA with a Bonferroni post-hoc test or Student’s t-test. The results were considered to be statistically significant when p < 0.05. The IC50 values were calculated using CalcuSyn 2.0 software (Biosoft, Cambridge, UK). Cell cycle analysis was evaluated using MultiCycle AV Software (Phoenix Flow Systems, San Diego, CA, USA).

Details of series [2]: method as in PMID 24254882. The following applies: cited from earlier work.
For series [3], the system named is cancer cells (HL-60, MCF-7, HCT116, A549) and non-cancerous cells (H9c2, 3T3). As to the kind of experiment: MTT cytotoxicity assay, summary over the cell line panel. The following applies: HL-60, MCF-7, HCT116, A549; 72 h; read-out: IC50, range over cancer cells. It counts as cell-based. How it is done:
as §1, §2, §3

In the next series the test system is MCF-7 cells. As to the kind of experiment: Viability (viabilita) used to normalise caspase activity.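 Further: compound tested at 100 nM.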 The format is cell-based, human. The following applies: kontrola = 100. The source says:
Supplement pone.0139929.s002.zip/caspases activity.xlsx, sheet "results_viability"

The mark [4] stands for this setting: Homo sapiens, MCF7, 72 h, MCF-7, 72 h/37°C, mean ± SD, n ≥ 4.
The mark [5] stands for this setting: Homo sapiens, MCF7, MCF-7, 5 000 b/j, průměr (mean).
Setting [6] is: Homo sapiens, MCF7, MCF-7, 5 000 b/j, single experiment (by date).
Where [7] appears, read: MCF-7, 5 000 b/j, single experiment (by date).
Where [8] appears, read: MCF-7, 5 000 b/j, koncentrace 1 μM, průměr (mean).
Setting [9] is: MCF-7, 5 000 b/j, koncentrace 1 μM, single experiment (by date).
Setting [10] is: MCF-7, 5 000 b/j, koncentrace 3 μM, průměr (mean).
[11] abbreviates: MCF-7, 5 000 b/j, koncentrace 3 μM, single experiment (by date).
The mark [12] stands for this setting: MCF-7, 5 000 b/j, koncentrace 10 μM, průměr (mean).
Setting [13] is: MCF-7, 5 000 b/j, koncentrace 10 μM, single experiment (by date).
The mark [14] stands for this setting: MCF-7, 5 000 b/j, koncentrace 30 μM, průměr (mean).
Setting [15] is: MCF-7, 5 000 b/j, koncentrace 30 μM, single experiment (by date).
The mark [16] stands for this setting: MCF-7, 5 000 b/j, koncentrace 100 μM, průměr (mean).
Where [17] appears, read: MCF-7, 5 000 b/j, koncentrace 100 μM, single experiment (by date).
Setting [18] is: MCF-7, 5 000 b/j, koncentrace 300 μM, průměr (mean).
[19] abbreviates: MCF-7, 5 000 b/j, koncentrace 300 μM, single experiment (by date).
Where [20] appears, read: MCF-7, 5 000 b/j, koncentrace 1000 μM, průměr (mean).
Where [21] appears, read: MCF-7, 5 000 b/j, koncentrace 1000 μM, single experiment (by date).

On to `CCN=CNN=C(c1ccccc1)c1ccccn1` [Bp4eA, N ^3-ethyl-N ^1-[phenyl(pyridin-2-yl)methylene]formamidrazone], for which the “Therapeutic index, IC50 non-cancerous cells / IC50 neoplastic cells” value in series [1] (3T3/MCF-7) stood at 17.3; in series [1] (H9c2/MCF-7) it was 7.0. The concentration for half-maximal inhibition (IC50) is 59.4 ± 8.9 µM in series [1] (setting [4]); 59.4 µM in series [1] (setting [5]); 69.9 µM in series [1] (setting [6]); 48.9 µM and 62.4 µM and 56.6 µM in series [1] (setting [7]); 52 to 207 µM in series [3]. Besides, the “MTT, value relative to 0 μM = 100” value in series [1] (setting [8]) was 93.04; in series [1] (setting [9]) it was 90.8485 and 99.965 and 93.7506 and 93.1688 and 87.4567; in series [1] (setting [10]), 85.43; in series [1] (setting [11]), 93.874 and 91.0261 and 71.3771; in series [1] (setting [12]), 84.39; in series [1] (setting [13]) it was 92.9139 and 90.5956 and 78.0175 and 76.0291. Also, the “MTT, value relative to 0 μM = 100” value in series [1] (setting [14]) is 81.82; in series [1] (setting [15]), 88.8876 and 87.4579 and 79.9984 and 70.9265; in series [1] (setting [16]) it was 26.24; in series [1] (setting [17]), 35.9762 and 29.29 and 21.3398 and 22.2541 and 22.3478; in series [1] (setting [18]), 16.91; in series [1] (setting [19]), 19.6559 and 17.473 and 16.628 and 13.8677. For the same compound, the “MTT, value relative to 0 μM = 100” value in series [1] (setting [20]) was 14.02; in series [1] (setting [21]), 14.4001 and 13.0033 and 14.9518 and 13.7358. Moreover, the “Highest concentration in plasma” value in series [2] (rat plasma, after 300 min post i.v. administration of Bp4eT) was under 1 µM. For the same compound, the “Exposure relative to that of the parent compound” value in series [2] (rats, intravenous administration of Bp4eT) is on record as 20%.
For the compound `CCNC(=O)NN=C(c1ccccc1)c1ccccn1` [E-Bp4eS, 2-benzoylpyridine 4-ethylsemicarbazone], the viabilita was 98.187 in the series with MCF-7 cells (3 hodiny), 99.4673 in the series with MCF-7 cells (24 hodin) and 97.81 in the series with MCF-7 cells (72 hodin). For the same compound, the “Therapeutic index, IC50 non-cancerous cells / IC50 neoplastic cells” value was over 4.8 in series [1] (3T3/MCF-7) and 4.2 in series [1] (H9c2/MCF-7). Also, the half-maximal inhibitory concentration (IC50) in series [1] (setting [4]) was 208 ± 43.9 µM; in series [1] (setting [5]), 209 µM; in series [1] (setting [6]), 194 µM; in series [1] (setting [7]), 169 µM and 199 µM and 271 µM. Also, the “MTT, value relative to 0 μM = 100” value is 97.81 in series [1] (setting [8]); 92.729 and 97.0185 and 91.1778 and 97.3834 and 110.755 in series [1] (setting [9]); 98.68 in series [1] (setting [10]); 98.4078 and 88.0788 and 100.293 and 107.936 in series [1] (setting [11]); 97.39 in series [1] (setting [12]); 92.0003 and 97.1637 and 90.3424 and 98.5326 and 108.927 in series [1] (setting [13]). Further, the “MTT, value relative to 0 μM = 100” value was 96.90 in series [1] (setting [14]); 97.756 and 80.695 and 97.8856 and 111.258 in series [1] (setting [15]); 90.08 in series [1] (setting [16]); 88.6813 and 85.2546 and 75.1399 and 92.8747 and 108.447 in series [1] (setting [17]); 23.35 in series [1] (setting [18]); 24.0916 and 23.1141 and 17.816 and 28.3884 in series [1] (setting [19]). The “MTT, value relative to 0 μM = 100” value in series [1] (setting [20]) was 23.56; in series [1] (setting [21]) it was 23.4887 and 24.7991 and 25.8548 and 20.0906.
For the compound `CCNC(=O)NN=C(c1ccccc1)c1ccccn1` [Z-Bp4eS, 2-benzoylpyridine 4-ethylsemicarbazone], the “Therapeutic index, IC50 non-cancerous cells / IC50 neoplastic cells” value in series [1] (3T3/MCF-7) is over 5.1; in series [1] (H9c2/MCF-7) it was 1.7. For the same compound, the IC50 in series [1] (MCF-7, 72 h/37°C, mean ± SD, n ≥ 4) was 198 ± 20.9 µM; in series [1] (MCF-7, 5 000 b/j, průměr (mean)) it was 198 µM; in series [1] (setting [7]) it was 185 µM and 224 µM and 177 µM and 205 µM. In addition, the “MTT, value relative to 0 μM = 100” value is 93.54 in series [1] (setting [8]); 102.478 and 93.2821 and 90.3792 and 88.0305 in series [1] (setting [9]); 89.98 in series [1] (setting [10]); 104.08 and 86.4853 and 85.3702 and 83.9685 in series [1] (setting [11]); 90.26 in series [1] (setting [12]); 95.2561 and 95.1363 and 88.6166 and 84.693 and 87.5852 in series [1] (setting [13]). Further, the “MTT, value relative to 0 μM = 100” value in series [1] (setting [14]) was 93.09; in series [1] (setting [15]), 93.8264 and 93.1628 and 90.8333 and 94.5401; in series [1] (setting [16]), 68.42; in series [1] (setting [17]), 56.52 and 67.9071 and 73.7709 and 75.4946; in series [1] (setting [18]) it was 29.85; in series [1] (setting [19]), 23.6355 and 38.2595 and 25.5292 and 31.9956. The “MTT, value relative to 0 μM = 100” value in series [1] (setting [20]) is 13.67; in series [1] (setting [21]) it was 18.442 and 16.1441 and 10.4709 and 9.64.
